Converted amounts (≈) assume the structure as drawn.
Tests used:
Helicobacter pylori [1] = assay: Antimicrobial activity against Helicobacter pylori isolated from gastrointestinal disease patient after 72 hrs by Etest method; assay type: functional
[2] = Binding affinity to Helicobacter pylori transglycosylase
Helicobacter pylori [3] = assay: Antimicrobial activity against Helicobacter pylori; assay type: functional

| MIC90 (Helicobacter pylori [1]) | Kd [2] | MIC (Helicobacter pylori [3]) | Compound |
| --- | --- | --- | --- |
| 8 µg/mL (≈ 10.7 µM) |  |  | CC[C@H]1OC(=O)[C@H](C)[C@@H](O[C@H]2C[C@@](C)(OC)[C@@H](O)[C@H](C)O2)[C@H](C)[C@@H](O[C@@H]2O[C@H](C)C[C@H](N(C)C)[C@H]2O)[C@](C)(OC)C[C@@H](C)C(=O)[C@H](C)[C@@H](O)[C@]1(C)O [CLARITHROMYCIN] |
| 16 µg/mL (≈ 93.5 µM) |  |  | Cc1ncc([N+](=O)[O-])n1CCO [METRONIDAZOLE] |
| 1 µg/mL |  |  | C[C@H]1COc2c(N3CCN(C)CC3)c(F)cc3c(=O)c(C(=O)O)cn1c23.C[C@H]1COc2c(N3CCN(C)CC3)c(F)cc3c(=O)c(C(=O)O)cn1c23.O [LEVOFLOXACIN] |
| 0.5 µg/mL (≈ 1.13 µM) |  |  | CN(C)[C@@H]1C(O)=C(C(N)=O)C(=O)[C@@]2(O)C(O)=C3C(=O)c4c(O)cccc4[C@@](C)(O)[C@H]3C[C@@H]12 [TETRACYCLINE] |
| 2 µg/mL (≈ 1.26 µM) | 25 nM | 1.3 µM (≈ 2.06 µg/mL) | C=C(C/C=C(\C)CCC=C(C)C)CCC(C)(C)/C=C/CC/C(C)=C/CO[C@@H](COP(=O)(O)O[C@H]1O[C@H](C(N)=O)[C@@](C)(O)[C@H](OC(N)=O)[C@H]1O[C@@H]1O[C@H](CO[C@@H]2O[C@H](CO)[C@@H](O)[C@H](O)[C@H]2O)[C@@H](O[C@@H]2O[C@H](C)[C@@H](O[C@@H]3O[C@H](C(=O)NC4=C(O)CCC4=O)[C@H](O)[C@H](O)[C@H]3O)[C@H](O)[C@H]2NC(C)=O)[C@H](O)[C@H]1NC(C)=O)C(=O)O [MOENOMYCIN A] |

— ChEMBL document CHEMBL3259665, “Development of bacterial transglycosylase inhibitors as new antibiotics: moenomycin A treatment for drug-resistant Helicobacter pylori” (Bioorg Med Chem Lett, 2014)
